{"source": "patent US6479548B2", "about": "“Substituted stilbenes as glucose uptake enhancers” (Telik, Inc., priority 2000, dated 2002)", "molecular_target": "T1, complete β-kinase domain of the human insulin receptor (CKD) (Homo sapiens, UniProt P06213)", "T1 construct": "The complete β-kinase domain of the human insulin receptor (CKD); made in house", "T1 sequence (P06213 1023-1298 limits assumed)": "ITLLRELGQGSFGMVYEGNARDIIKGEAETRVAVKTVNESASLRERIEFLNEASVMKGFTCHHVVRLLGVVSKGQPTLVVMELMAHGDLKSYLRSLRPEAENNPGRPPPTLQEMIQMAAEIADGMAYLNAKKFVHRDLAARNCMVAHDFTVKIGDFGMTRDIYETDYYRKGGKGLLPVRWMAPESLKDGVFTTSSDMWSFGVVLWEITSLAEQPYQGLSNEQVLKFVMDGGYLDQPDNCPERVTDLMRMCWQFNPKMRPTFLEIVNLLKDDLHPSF", "assay": "32P-CKD autophosphorylation assay", "type": "biochemical", "conditions": "compound at 10 μM, phosphorylation of CKD expressed as % of the vehicle level; for activity at 10 µM: 10 min, read-out: Activity (% vs. control)", "procedure": "The complete β-kinase domain of the human insulin receptor (CKD) was expressed in, and purified from, baculovirus. CKD (4.0 μg/ml), in a solution of 29 mM HEPES (pH 7.6), 0.05% Triton X-100, 10 mM MgCl2, 2 mM MnCl2 (50 μl final volume), is combined with 50 μM ATP, and 5 μCi ^32P-ATP (3000 Ci/mmol).", "data": [{"compound": "CN(C(=O)c1ccccc1)c1ccc(/C=C/c2ccccc2)cc1C(=O)O", "note": "[Compound 25, 5-((1E)-2-phenylvinyl)-2-(N-methylphenylcarbonylamino)benzoic acid]", "values": [{"measurement": "activity at 10 µM", "value": 59, "unit": "%"}]}, {"compound": "COc1cc(C(=O)Nc2ccc(/C=C/c3ccccc3)cc2C(=O)O)cc(OC)c1OC", "note": "[Compound 26, 5-((1E)-2-phenylvinyl)-2-[(3,4,5-trimethoxyphenyl)carbonylamino]benzoic acid]", "values": [{"measurement": "activity at 10 µM", "value": 107, "unit": "%"}]}, {"compound": "COC(=O)c1cc(/C=C/c2ccccc2)ccc1NC(=O)c1ccccc1", "note": "[Compound 27, methyl 5-((1E)-2-phenylvinyl)-2-[phenylcarbonylamino)benzoate]", "values": [{"measurement": "activity at 10 µM", "value": 73, "unit": "%"}]}, {"compound": "COc1ccc(/C=C/c2ccc(N(C)C(=O)c3ccccc3)c(C(=O)O)c2)cc1", "note": "[Compound 28, 5-[(1E)-2-(4-methoxyphenyl)vinyl]-2-(N-methylphenylcarbonylamino)benzoic acid]", "values": [{"measurement": "activity at 10 µM", "value": 75, "unit": "%"}]}, {"compound": "COC(=O)c1ccc(C(=O)N(C)c2ccc(C(=O)Nc3ccc(/C=C/c4ccc(OC)cc4)cc3C(=O)OC)cc2)cc1", "note": "[Compound 29, methyl 4-{N-[4-(N-{4-[(1E)-2-(4-methoxyphenyl)vinyl]-2-(methoxycarbonyl)-phenyl}carbamoyl)phenyl]-N-methylcarbamoyl}benzoate]", "values": [{"measurement": "activity at 10 µM", "value": 61, "unit": "%"}]}, {"compound": "COC(=O)c1ccc(N(C(C)=O)c2ccc(C(=O)Nc3ccc(/C=C/c4ccc(OC)cc4)cc3C(=O)O)cc2)cc1", "note": "[Compound 30, 5-[(1E)-2-(4-methoxyphenyl)vinyl]-2-[(4-{[4-(methoxycarbonyl)phenyl]-N-methyl-carbonylamino}phenyl)carbonylamino]benzoic acid]", "values": [{"measurement": "activity at 10 µM", "value": 93, "unit": "%"}]}, {"compound": "COc1ccc(/C=C/c2ccc(NC(=O)c3ccc(N(C(C)=O)c4ccc(C(=O)O)cc4)cc3)c(C(=O)O)c2)cc1", "note": "[Compound 31, 5-[(1E)-2-(4-methoxyphenyl)vinyl]-2-({4-[(4-carboxyphenyl)-N-methylcarbonyl-amino]phenyl}carbonylamino)benzoic acid]", "values": [{"measurement": "activity at 10 µM", "value": 121, "unit": "%"}]}, {"compound": "COC(=O)c1ccc(C(=O)N(C)c2ccc(C(=O)Nc3ccc(/C=C/c4ccccc4F)cc3C(=O)OC)cc2)cc1", "note": "[Compound 32, methyl 4-{N-[4-(N-{4-[(1E)-2-(2-fluorophenyl)vinyl]-2-(methoxycarbonyl)phenyl}-carbamoyl)phenyl]-N-methylcarbamoyl}benzoate]", "values": [{"measurement": "activity at 10 µM", "value": 81, "unit": "%"}]}, {"compound": "CC(=O)N(c1ccc(C(=O)O)cc1)c1ccc(C(=O)Nc2ccc(/C=C/c3ccccc3F)cc2C(=O)O)cc1", "note": "[Compound 33, 5-[(1E)-2-(2-fluorophenyl)vinyl]-2-({4-[(4-carboxyphenyl)-N-methylcarbonyl-amino]phenyl}carbonylamino)benzoic acid]", "values": [{"measurement": "activity at 10 µM", "value": 78, "unit": "%"}]}, {"compound": "COC(=O)c1ccc(C(=O)N(C)c2ccc(C(=O)Nc3ccc(/C=C/c4ccc(F)cc4)cc3C(=O)OC)cc2)cc1", "note": "[Compound 34, methyl 4-{N-[4-(N-{4-[(1E)-2-(4-fluorophenyl)vinyl]-2-(methoxycarbonyl)phenyl}-carbamoyl)phenyl]-N-methylcarbamoyl}benzoate]", "values": [{"measurement": "activity at 10 µM", "value": 88, "unit": "%"}]}, {"compound": "CC(=O)N(c1ccc(C(=O)O)cc1)c1ccc(C(=O)Nc2ccc(/C=C/c3ccc(F)cc3)cc2C(=O)O)cc1", "note": "[Compound 35, 5-[(1E)-2-(4-fluorophenyl)vinyl]-2-({4-[(4-carboxyphenyl)-N-methylcarbonyl-amino]phenyl}carbonylamino)benzoic acid]", "values": [{"measurement": "activity at 10 µM", "value": 177, "unit": "%"}]}, {"compound": "COC(=O)c1ccc(N(C(C)=O)c2ccc(C(=O)Nc3ccc(/C=C/c4ccc(S(=O)(=O)O)cc4)cc3C(=O)OC)cc2)cc1", "note": "[Compound 36, 4-((1E)-2-{3-(methoxycarbonyl)-4-[(4-{[4-(methoxycarbonyl)phenyl]-N-methyl-carbonylamino}phenyl)carbonylamino]phenyl}vinyl)benzenesulfonic acid]", "values": [{"measurement": "activity at 10 µM", "value": 171, "unit": "%"}]}, {"compound": "COC(=O)c1ccc(C(=O)N(C)c2ccc(C(=O)Nc3ccc(/C=C/c4cccc(F)c4)cc3C(=O)OC)cc2)cc1", "note": "[Compound 37, methyl 4-{N-[4-(N-{4-[(1E)-2-(3-fluorophenyl)vinyl]-2-(methoxycarbonyl)phenyl}-carbamoyl)phenyl]-N-methylcarbamoyl}benzoate]", "values": [{"measurement": "activity at 10 µM", "value": 93, "unit": "%"}]}, {"compound": "O=C(Nc1ccc(/C=C/c2ccccc2)c(C(=O)O)c1)c1ccccc1", "note": "[Compound 38, 2-((1E)-2-phenylvinyl)-5-(phenylcarbonylamino)benzoic acid]", "values": [{"measurement": "activity at 10 µM", "value": 105, "unit": "%"}]}, {"compound": "COC(=O)c1ccc(N(C(C)=O)c2ccc(C(=O)Nc3ccc(/C=C/c4ccccc4)c(C(=O)O)c3)cc2)cc1", "note": "[Compound 39, 2-((1E)-2-phenylvinyl)-5-[(4-{[4-(methoxycarbonyl)phenyl]-N-methylcarbonyl-amino}phenyl)carbonylamino]benzoic acid]", "values": [{"measurement": "activity at 10 µM", "value": 64, "unit": "%"}]}, {"compound": "O=C(Nc1ccc(/C=C/c2ccccc2)cc1C(=O)O)c1cc(O)cc(O)c1", "note": "[Compound 41, 5-((1E)-2-phenylvinyl)-2-[(3,5-dihydroxyphenyl)carbonylamino]benzoic acid]", "values": [{"measurement": "activity at 10 µM", "value": 80, "unit": "%"}]}, {"compound": "COc1cccc(C(=O)Nc2ccc(/C=C/c3ccccc3)cc2C(=O)O)c1", "note": "[Compound 42, 5-((1E)-2-phenylvinyl)-2-[(3-methoxyphenyl)carbonylamino]benzoic acid]", "values": [{"measurement": "activity at 10 µM", "value": 123, "unit": "%"}]}, {"compound": "COC(=O)c1ccc(/C=C/c2ccc(NC(=O)c3ccc(N(C)C(=O)c4ccc(C(=O)OC)cc4)cc3)cc2)cc1", "note": "[Compound 44, methyl 4-(N-{4-[N-(4-{(1E)-2-[4-(methoxycarbonyl)phenyl]vinyl}phenyl)-carbamoyl]phenyl}-N-methylcarbamoyl)benzoate]", "values": [{"measurement": "activity at 10 µM", "value": 97, "unit": "%"}]}, {"compound": "COC(=O)c1ccc(N(C(C)=O)c2ccc(C(=O)Nc3ccc(/C=C/c4cccc(CC(=O)O)c4)cc3)cc2)cc1", "note": "[Compound 46, 2-[3-((1E)-2-{4-[(4-{[4-(methoxycarbonyl)phenyl]-N-methylcarbonylamino}-phenyl)carbonylamino]phenyl}vinyl)phenyl]acetic acid]", "values": [{"measurement": "activity at 10 µM", "value": 91, "unit": "%"}]}, {"compound": "COC(=O)c1ccc(N(C(C)=O)c2ccc(N(C(C)=O)c3ccc(/C=C/c4ccc(OC(C)(C)C)c(C(=O)O)c4)cc3)cc2)cc1", "note": "[Compound 49, 5-((1E)-2-{4-[(4-{[4-(methoxycarbonyl)phenyl]-N-methylcarbonylamino}phenyl)-N-methylcarbonylamino]phenyl}vinyl)-2-(tert-butoxy)benzoic acid]", "values": [{"measurement": "activity at 10 µM", "value": 81, "unit": "%"}]}, {"compound": "CC(=O)N(c1ccc(/C=C/c2ccc(OC(C)(C)C)c(C(=O)O)c2)cc1)c1ccc(N(C(C)=O)c2ccc(C(=O)O)cc2)cc1", "note": "[Compound 50, 5-{(1E)-2-[4-({4-[(4-carboxyphenyl)-N-methylcarbonylamino]phenyl}-N-methyl-carbonylamino)phenyl]vinyl}-2-(tert-butoxy)benzoic acid]", "values": [{"measurement": "activity at 10 µM", "value": 105, "unit": "%"}]}, {"compound": "COC(=O)c1cc(/C=C/c2ccccc2)ccc1NC(=O)c1ccc(OC)c(OC)c1", "note": "[Compound 52, methyl 5-((1E)-2-phenylvinyl)-2-[(3,4-dimethoxyphenyl)carbonylamino]benzoate]", "values": [{"measurement": "activity at 10 µM", "value": 54, "unit": "%"}]}, {"compound": "COc1ccc(C(=O)Nc2ccc(/C=C/c3ccccc3)cc2C(=O)O)cc1OC", "note": "[Compound 53, 5-((1E)-2-phenylvinyl)-2-[(3,4-dimethoxyphenyl)carbonylamino]benzoic acid]", "values": [{"measurement": "activity at 10 µM", "value": 105, "unit": "%"}]}, {"compound": "COc1cccc(C(=O)Nc2ccc(/C=C/c3ccccc3)cc2CC(=O)O)c1", "note": "[Compound 55, 2-{5-((1E)-2-phenylvinyl)-2-[(3-methoxyphenyl)carbonylamino]phenyl}acetic acid]", "values": [{"measurement": "activity at 10 µM", "value": 117, "unit": "%"}]}, {"compound": "COc1ccc(/C=C/c2ccc(NC(=O)c3ccc4c(c3)OCO4)cc2)cc1", "note": "[Compound 56, N-{4-[(1E)-2-(4-methoxyphenyl)vinyl]phenyl}-2H-benzo[d]1,3-dioxolen-5-yl-carboxamide]", "values": [{"measurement": "Activity (% vs. control)", "value": 51, "unit": "%"}]}, {"compound": "COc1ccc(/C=C/c2ccc(N(Cc3ccc(C(=O)O)cc3)C(=O)c3ccc(N(C(C)=O)c4ccc(C(=O)O)cc4)cc3)c(C(=O)O)c2)cc1", "note": "[Compound 57, 5-[(1E)-2-(4-methoxyphenyl)vinyl]-2-(N-[(4-carboxyphenyl)methyl]{4-[(4-carboxy-phenyl)-N-methylcarbonylamino]phenyl}carbonylamino)benzoic acid]", "values": [{"measurement": "activity at 10 µM", "value": 107, "unit": "%"}]}, {"compound": "O=C(O)COc1cc(OCC(=O)O)cc(C(=O)Nc2ccc(/C=C/c3ccccc3)cc2C(=O)O)c1", "note": "[Compound 59, 5-((1E)-2-phenylvinyl)-2-{[3,5-bis(carboxymethoxy)phenyl]carbonylamino}benzoic acid]", "values": [{"measurement": "activity at 10 µM", "value": 94, "unit": "%"}]}, {"compound": "O=C(O)c1ccc(COc2cc(OCc3ccc(C(=O)O)cc3)cc(C(=O)Nc3ccc(/C=C/c4ccccc4)cc3C(=O)O)c2)cc1", "note": "[Compound 60, 5-((1E)-2-phenylvinyl)-2-({3,5-bis[(4-carboxyphenyl)methoxy]phenyl}carbonyl-amino)benzoic acid]", "values": [{"measurement": "activity at 10 µM", "value": 80, "unit": "%"}]}]}
